Measurements taken from article PMC8170132, “Kinetics of Abacavir-Induced Remodelling of the Major Histocompatibility Complex Class I Peptide Repertoire” (Frontiers in Immunology, 2021).

How the values were obtained:
HLA-B*57:01fos [1] = biological target: T1, HLA-B*57:01fos (Homo sapiens, UniProt P01889, D201E/D98Y/E176V/E187L/E204Q/E69M/E70A/G107R/I90N/K202T/L105A/L119I/N104I/N87E/Q89R/Q94S/R106L/R155S/R180L/R86G/S101N/S121V/S35A/S48A/T118I/V36M/Y140S/Y91M); assay: Fluorescence polarisation dissociation rate measurements; type: binding; details: for Effect of abacavir on dissociation of the peptide from HLA-B*57:01fos: 60 µM abacavir with competing peptide; for Half life (hours) of dissociation from HLA-B*57:01fos, Comp+Abacavir / Half life (hours) of dissociation from HLA-B*57:01fos, Comp+Tapasin / Half life (hours) of dissociation from HLA-B*57:01fos, Comp+Tapasin+Abacavir: as Comp; for Half life (hours) of dissociation from HLA-B*57:01fos, Comp+Abacavir: plus 60 µM abacavir; for Half life (hours) of dissociation from HLA-B*57:01fos, Comp+Abacavir / Half life (hours) of dissociation from HLA-B*57:01fos, Comp+Tapasin / Half life (hours) of dissociation from HLA-B*57:01fos, Comp+Tapasin+Abacavir / Half life (hours) of dissociation from HLA-B*57:01fos, Comp: fluorescence polarisation, 25°C, one-phase decay, plateau 50 mP (unconstrained for RVD), 3-4 replicates; for Half life (hours) of dissociation from HLA-B*57:01fos, Comp+Tapasin: plus conjugated tapasin-jun-ERp57 C60A (mostly 0.254 µM); for Half life (hours) of dissociation from HLA-B*57:01fos, Comp+Tapasin+Abacavir: plus tapasin-jun-ERp57 C60A and 60 µM abacavir; for Half life (hours) of dissociation from HLA-B*57:01fos, Comp: PBS + 0.5 mg/ml bovine-gamma-globulin, 20 fold excess human β2m, excess unlabelled competing peptide only; for Tapasin dependent enhancement of dissociation: tapasin-jun-ERp57 C60A with competing peptide; for Rate of dissociation from HLA-B*57:01fos (in words): competing peptide only
T1 construct: Fos leucine zipper (C); made in house
Method: (§1) Peptide loaded HLA-B*57:01fos complexes were obtained as described ([50]) by refolding solubilised inclusion bodies of HLA-B*57:01fos heavy chains with human β 2m and UV-labile HLA-B57-conditional peptide ligand.
(§2) Fluorescence polarisation measurements were taken using a SpectraMax i3x Multi-Mode Microplate Reader (Molecular Devices) with rhodamine detection cartridge. All experiments were conducted at 25°C and used PBS supplemented with 0.5 mg/ml bovine-gamma-globulin (Sigma), and a 20 fold molar excess of human β 2m (Fitzgerald) in a volume of 60 µl. Binding of TAMRA-labelled peptides is reported in millipolarisation units (mP) and is obtained from the equation mP = 1,000 × (S – G × P)/(S + G × P), where S and P are background subtracted fluorescence count rates (S = polarisation emission filter is parallel to the excitation filter; P = polarisation emission filter is perpendicular to the excitation filter) and G (grating) is an instrument and assay dependent factor.
HLA-B*57:01fos molecules were UV exposed and then allowed to bind fluorescent peptides overnight at room temperature. Florescence polarisation measurements were taken after the addition of excess non-labelled competitor peptide (otherwise identical to the labelled peptide) in the absence or presence of 60 µM abacavir or conjugated tapasin-jun-ERp57 C60A proteins. […] Most experiments used 0.55 µM HLA-B*57:01fos molecules, but some experiments involved different preparations of HLA-B*57:01fos which required higher concentrations of HLA-B*57:01fos, up to a maximum of 1.38 µM HLA-B*57:01fos, to achieve equivalent polarisation levels.
Supplementary Table 2. Dissociation rates of TAMRA-labelled peptides from HLA-B*57:01fos molecules. The rates at which the indicated peptides dissociated from HLA-B*57:01fos molecules in the presence of excess unlabelled competing peptide (“Comp”), abacavir and tapasin (data shown in figure 7) was measured by Graphpad Prism v9.1.0. The dissociation rates were calculated by performing non-linear regression, using the one-phase decay method, with plateaus constrained to be equal to 50 mP (apart from being unconstrained for RVD peptide). The number of experimental replicates, and the standard deviation in the measured dissociation rates across the replicates is also presented.

HLA-B*57:01fos [2] = biological target: T1, HLA-B*57:01fos; assay: Fluorescence polarisation association rate measurements; type: binding; details: 25°C; for Effect of tapasin on binding of fluorescent peptide to HLA-B*57:01fos: tapasin-jun or tapasin-jun ERp57 C60A conjugate; for Effect of tapasin on binding of fluorescent peptide to HLA-B*57:01fos / Effect of combined abacavir and tapasin on binding of fluorescent peptide to HLA-B*57:01fos / Effect of abacavir on binding of fluorescent peptide to HLA-B*57:01fos: fluorescence polarisation; for Effect of combined abacavir and tapasin on binding of fluorescent peptide to HLA-B*57:01fos: 60 µM abacavir + tapasin-jun; for Intrinsic binding of fluorescent peptide to UV exposed HLA-B*57:01fos: peptide alone, fluorescence polarisation (mP); for Effect of abacavir on binding of fluorescent peptide to HLA-B*57:01fos: 60 µM abacavir
Method: as §1, §2
Peptide-receptive HLA-B*57:01fos were obtained by exposing HLA-B*57:01fos complexes loaded with UV labile conditional peptide ligand to ~360 nm light for 20 min at 4°C (“UV exposed” hereafter). The binding of fluorescent peptides to UV exposed HLA-B*57:01fos was monitored in the absence or presence of excess (60 µM) abacavir or tapasin-jun or tapasin-jun ERp57 C60A conjugate. […] Most experiments used 0.55 µM HLA-B*57:01fos molecules, but a minority of experiments involved different preparations of HLA-B*57:01fos which required higher concentrations of HLA-B*57:01fos, up to a maximum of 3.18 µM HLA-B*57:01fos, to achieve equivalent polarisation levels.

HLA-B*57:01 [3] = biological target: T2, HLA-B*57:01 (Homo sapiens, UniProt P01889, D201E/D98Y/E176V/E187L/E204Q/E69M/E70A/G107R/I90N/K202T/L105A/L119I/N104I/N87E/Q89R/Q94S/R106L/R155S/R180L/R86G/S101N/S121V/S35A/S48A/T118I/V36M/Y140S/Y91M); assay: LC-MRM-MS quantitation of HLA ligands and co-purified abacavir from abacavir treated C1R.B*57:01 cells; type: cell-based; details: for Linear regression slope: linear regression of LC-MRM-MS peptide abundance over abacavir treatment time
HLA-B*57:01 [4] = biological target: T2, HLA-B*57:01; design: method as in Illing et al., Nature 2012; details: ref Illing et al., Nature 2012, cited from earlier work; for HLA-B*57:01 previous observation by LC-MS/MS, Abacavir treated: abacavir treated cells; for HLA-B*57:01 previous observation by LC-MS/MS, Untreated: untreated cells
HLA-B*15:02 = HLA-B*15:02 (Homo sapiens, UniProt P01889, A329T/A93T/A95T/C349S/D201E/D98Y/E187L/E204Q/E69M/E70A/H137Y/K202T/L119I/Q94N/R155S/R180L/S121R/S35A/S48A/T118I/V306I/V36M/Y140S/Y91S); details: ref [20]–[22]; cited from earlier work
HLA-B*58:01 = HLA-B*58:01 (Homo sapiens, UniProt P01889, A329T/C349S/D201E/D98Y/E176V/E187L/E204Q/E69T/G107R/I218V/I90N/K202T/L105A/L119I/N104I/N87E/Q89R/Q94S/R106L/R155S/R180L/R86G/S101N/S121R/S35A/S48A/T118I/V127L/V306I/V36M/Y140S/Y91M); details: ref [20]–[22]; cited from earlier work

Row | Compound | Effect of abacavir on dissociation of the peptide from HLA-B*57:01fos (HLA-B*57:01fos [1]) | Half life (hours) of dissociation from HLA-B*57:01fos, Comp+Abacavir (HLA-B*57:01fos [1]) | Half life (hours) of dissociation from HLA-B*57:01fos, Comp+Tapasin (HLA-B*57:01fos [1]) | Half life (hours) of dissociation from HLA-B*57:01fos, Comp+Tapasin+Abacavir (HLA-B*57:01fos [1]) | Half life (hours) of dissociation from HLA-B*57:01fos, Comp (HLA-B*57:01fos [1]) | Effect of tapasin on binding of fluorescent peptide to HLA-B*57:01fos (HLA-B*57:01fos [2]) | Effect of combined abacavir and tapasin on binding of fluorescent peptide to HLA-B*57:01fos (HLA-B*57:01fos [2]) | Intrinsic binding of fluorescent peptide to UV exposed HLA-B*57:01fos (HLA-B*57:01fos [2]) | Effect of abacavir on binding of fluorescent peptide to HLA-B*57:01fos (HLA-B*57:01fos [2]) | further results
1 | KVFK*LQTSL | pronounced decrease in the dissociation | 51.83 h | 1.06 h | 2.47 h | 3.27 h | only slightly enhanced binding |  |  |  | Tapasin dependent enhancement of dissociation (HLA-B*57:01fos [1]): significant
2 | VTKK*TYEIW [TAMRA labelled canonical HLA-B*57:01 peptide] | minimal impact on the dissociation | 373.30 h | 207.90 h | 198.40 h | 374.80 h | catalysed binding of the VTK and ITT peptides to a greater extent than abacavir | did not enhance the binding | bound to HLA-B*57:01 molecules |  | Rate of dissociation from HLA-B*57:01fos (in words) (HLA-B*57:01fos [1]): hundreds of hours
3 | KTFK*DVGNLL | pronounced decrease in the dissociation | 814.20 h |  | 62.89 h | 402.30 h | binding strongly enhanced | occurred faster than in the presence of tapasin or abacavir alone | limited intrinsic ability to bind | binding strongly enhanced | Tapasin dependent enhancement of dissociation (HLA-B*57:01fos [1]): significant
4 | VTKKTYEIW [non-labelled canonical HLA-B*57:01 ligand] |  |  |  |  |  |  |  |  | enhanced the binding | Category of abacavir impact on peptide abundance in the immunopeptidome (HLA-B*57:01 [3]; C1R.B*57:01, 35 µM abacavir 0-16 h or constant, linear regression of normalised abundance, three replicates): Minimal; Abacavir dependence (HLA-B*57:01 [3]; LC-MRM-MS detection, classification of the peptide based on abacavir dependency): Minimal; Linear regression slope (HLA-B*57:01 [3]): 0.0161; HLA-B*57:01 previous observation by LC-MS/MS, Abacavir treated (HLA-B*57:01 [4]): + (+ (< 5% FDR)); HLA-B*57:01 previous observation by LC-MS/MS, Untreated (HLA-B*57:01 [4]): + (+ (< 5% FDR))
5 | NC(=O)N1c2ccccc2C=Cc2ccccc21 [carbamazepine] |  |  |  |  |  |  |  |  |  | Odds ratio of hypersensitivity reaction with HLA-B*15:02 (HLA-B*15:02): > 500
6 | ATFK*GIVRAI | pronounced decrease in the dissociation | 71.63 h | 2.04 h | 33.59 h | 2.34 h | only slightly enhanced binding |  |  | less pronounced | 
7 | RVDPAK*GLFYF | modestly enhanced | 0.26 h | 0.35 h | 0.26 h | 0.31 h |  | tapasin partially mitigated this effect | poor binding | enhanced by abacavir during the first hour | Rate of dissociation from HLA-B*57:01fos (in words) (HLA-B*57:01fos [1]): minutes
8 | LTTK*LTNTNI |  |  |  |  |  | did not affect the binding |  |  |  | 
9 | NTVELRVK*I | pronounced decrease in the dissociation | 233.60 h | 1.60 h | 142.70 h | 2.67 h | did not affect the binding |  |  |  | Tapasin dependent enhancement of dissociation (HLA-B*57:01fos [1]): minimal
10 | ITTKAISRW [canonical peptide ligand of HLA-B*57:01] |  |  |  |  |  |  |  |  | enhanced the binding | 
11 | TSLK*SRVTI | pronounced decrease in the dissociation | 22.41 h | 5.12 h | 10.38 h | 7.41 h | binding strongly enhanced | occurred faster than in the presence of tapasin or abacavir alone | limited intrinsic ability to bind | binding strongly enhanced | 
12 | Oc1ncnc2[nH]ncc12 [allopurinol] |  |  |  |  |  |  |  |  |  | Odds ratio of hypersensitivity reaction with HLA-B*58:01 (HLA-B*58:01): > 500
13 | IYDKFIAQL |  |  |  |  |  |  |  |  |  | Linear regression slope (HLA-B*57:01 [3]): -0.0106; HLA-B*57:01 previous observation by LC-MS/MS, Abacavir treated (HLA-B*57:01 [4]): + (+ (< 5% FDR)); HLA-B*57:01 previous observation by LC-MS/MS, Untreated (HLA-B*57:01 [4]): + (+ (< 5% FDR))
